Assay results taken from paper doi:10.1101/2024.03.17.584721v1 (bioRxiv, 2024).

What was measured:
HeLa cells = experiment: Confocal imaging of subcellular localization; format: cell-based, human; conditions: free fluorescein-labelled peptide without LNP, 8 hours, live cell confocal
[1] = In vivo biodistribution of LNP-encapsulated PepTACs; set-up: species or system SKH-1 hairless mice; conditions: Cy5.5-labeled, 5 mg/kg IV, confocal imaging of liver sections
[2] = Encapsulation efficiency of the LNPs; format: physicochemical; conditions: optimized LNP formulation, ^CRPepTAC or peptide ligand alone; Figure 4B

| Substance | uptake / subcellular localization (HeLa cells) | PepTAC signal in liver sections after 24 hours [1] | LNP Encapsulation Efficiency, % [2] [%] |
| --- | --- | --- | --- |
| IYP^OHAL-Ahx-KDVLSEKEKKLEEYKQKLARV [^CRPepTAC] | no uptake or cellular association | no signal |  |
| KDVLSEKEKKLEEYKQKLARV [CL] |  |  | 15 |
